The record followed here is patent US20220324835A1 (Nurix Therapeutics, Inc., priority 2018, published 2022).

SMILES strings stand for the structures.

The subject of assay [1] is T-cell. Kind of assay: CD25 cell surface staining on T-cells stimulated with anti-CD3 antibody alone (Biological Example 2). In kind it is cell-based. To be noted: primary human total T-cells, baseline = anti-CD3/anti-CD28 stimulated cells without inhibitor, read-out: CD25 staining, Anti-CD3 stimulation, fold change over baseline; for fold induction at 1 µM: 1 μM compound; for fold induction at 8 µM: 8 μM compound.

Assay [2] deals with T1, Cbl-b (Homo sapiens, UniProt Q13191). Kind of assay: Cbl-b activity assay (Cbl-b inhibition assay), TR-FRET of Cbl-b interaction with UbcH5B-Ub. It is filed as biochemical. To be noted: assay buffer with 100 mM NaCl, 60 nM Src kinase; read-out: Cbl-b activity IC50. In a few lines: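 TR-FRET readout of Cbl-b binding to Bodipy-fluorescein N-terminally labeled Ub conjugated to UbcH5B C85K, measured with compound present. After compound incubation, 60 nM Src kinase with 1 mM ATP and 5 mM MgCl2 (final) was added for 1.5 h, then a further 1 h incubation; asterisked values used 50 mM NaCl buffer and 30 nM Src.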

Assay [3] has as its system T-cell. Kind of assay: CD25 cell surface staining on T-cells co-stimulated with anti-CD3 and anti-CD28 antibody (Biological Example 2). In kind it is cell-based, human. To be noted: Homo sapiens, T-cell, primary human total T-cells, baseline = anti-CD3/anti-CD28 stimulated cells without inhibitor, read-out: CD25 staining, Anti-CD3/Anti-CD28 stimulation, fold change over baseline; for fold induction at 0.3 µM: 0.3 μM compound; for fold induction at 1 µM: 1 μM compound; for fold induction at 4 µM: 4 μM compound. In a few lines:
(§1)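 No assay protocol given; T-cells stimulated with anti-CD3 alone or anti-CD3 plus anti-CD28, with or without Cbl-b inhibitor. Activation read as IL-2 secretion or CD25 surface staining, expressed as fold over baseline from uninhibited cells […].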

Assay [4] has as its system T-cell. The assay is described as follows: IL-2 secretion from T-cells stimulated with anti-CD3 antibody alone (Biological Example 2). The following applies: primary human total T-cells, read-out: IL-2 secretion, Anti-CD3 stimulation, fold change over baseline; for fold induction at 1 µM: 1 μM compound; for fold induction at 8 µM: 8 μM compound. In kind it is cell-based.

The target of assay [5] is T1, Cbl-b. The assay is described as follows: Cbl-b inhibition assay (Cbl-b activity assay, FRET, Biological Example 1; 100 mM NaCl, 60 nM Src kinase). It is filed as biochemical. To be noted: upper bound stated in text lists; read-out: IC50 values in the Cbl-b inhibition assay of Biological Example 1. In a few lines:
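Steps: Src kinase phosphorylates N-terminal biotinylated Avi-tagged Cbl-b; phosphorylated Cbl-b binds Bodipy-fluorescein ubiquitin-loaded UbcH5B; streptavidin-terbium on Cbl-b sits close to the fluorescein label, producing FRET. Inhibitors block UbcH5B-Ub binding.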

The subject of assay [6] is T-cell. Kind of assay: IL-2 secretion from T-cells co-stimulated with anti-CD3 and anti-CD28 antibody (Biological Example 2). In kind it is cell-based, human. To be noted: Homo sapiens, T-cell, primary human total T-cells, baseline = anti-CD3/anti-CD28 stimulated cells without inhibitor, read-out: IL-2 secretion, Anti-CD3/Anti-CD28 stimulation, fold change over baseline; for fold induction at 0.3 µM: 0.3 μM compound; for fold induction at 1 µM: 1 μM compound; for fold induction at 4 µM: 4 μM compound. In a few lines: as §1

T1 sequence (Q13191 36-427): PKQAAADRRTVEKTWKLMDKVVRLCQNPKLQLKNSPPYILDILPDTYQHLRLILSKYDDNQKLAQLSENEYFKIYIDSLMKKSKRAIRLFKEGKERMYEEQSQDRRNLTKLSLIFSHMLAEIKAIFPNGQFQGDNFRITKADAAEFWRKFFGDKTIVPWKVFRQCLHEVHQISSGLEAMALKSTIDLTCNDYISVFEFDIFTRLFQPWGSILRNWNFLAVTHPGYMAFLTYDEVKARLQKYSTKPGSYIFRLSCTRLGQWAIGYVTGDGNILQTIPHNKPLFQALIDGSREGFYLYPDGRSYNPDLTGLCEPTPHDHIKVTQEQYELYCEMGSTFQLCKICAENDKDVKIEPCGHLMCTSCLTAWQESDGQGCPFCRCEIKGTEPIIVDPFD

By IC50 is commonly meant the point on the concentration scale where inhibition reaches its midpoint. On to `Cn1cnnc1CC1(c2cccc(N3Cc4c(cc(CN5CC[C@@H]6C[C@@H]65)cc4C(F)(F)F)C3=O)c2)COC1` (single isomer, unassigned) [Compound 486b], for which the fold induction at 1 µM in the assay on T-cell [1] is above 1; with T-cell [3], 1.51 to 1.75; in the assay with T-cell [4], above 0.201; in the assay on T-cell [6], above 7.5. Moreover, the figures for the IC50 at Cbl-b [2] and at Cbl-b [5] were below 100 nM and at most 100 nM, respectively. The fold induction at 0.3 µM with T-cell [3] is 1.51 to 1.75; in the assay with T-cell [6] it was above 7.5.

Take `C[C@H](c1cc2c(c(C(F)(F)F)c1)CN(c1cccc(C3([C@H](F)c4nncn4C)COC3)c1)C2=O)N1CCC2(CC2)C1` (single isomer, unassigned) [Compound 516]: the fold induction at 1 µM in the assay with T-cell [1] is above 1; in the assay with T-cell [3], above 1.76; in the assay with T-cell [4], above 0.201; in the assay on T-cell [6], above 7.5. For the same compound, the concentration for half-maximal inhibition (IC50) at Cbl-b [2] was below 100 nM; at Cbl-b [5] it was at most 100 nM. In addition, the fold induction at 0.3 µM with T-cell [3] was above 1.76; in the assay on T-cell [6], above 7.5.

Consider `Cn1cnnc1C[C@@]1(c2cccc(N3Cc4c(cc(CN5CCC6(CC6)C5)cc4C(F)(F)F)C3=O)c2)CCOC1` (single isomer, unassigned) [Compound 517a], for which the fold induction at 1 µM was 0.801 to 1 in the assay on T-cell [1], 1.01 to 1.3 with T-cell [3], 0.101 to 0.15 in the assay with T-cell [4] and above 7.5 in the assay with T-cell [6]. In addition, the IC50 on Cbl-b [2] was below 100 nM; on Cbl-b [5], at most 100 nM. Besides, the figures for the fold induction at 0.3 µM in the assay on T-cell [3] and with T-cell [6] were 1.01 to 1.3 and 2.51 to 5, respectively.

As to `Cn1cnnc1C[C@]1(c2cccc(N3Cc4c(cc(CN5CCC6(CC6)C5)cc4C(F)(F)F)C3=O)c2)CCOC1` (single isomer, unassigned) [Compound 517b], the fold induction at 1 µM with T-cell [1] was above 1; in the assay with T-cell [3], 1.01 to 1.3; with T-cell [4] it was above 0.201; in the assay on T-cell [6], above 7.5. Moreover, the values for the IC50 at Cbl-b [2] and at Cbl-b [5] were below 100 nM and at most 100 nM, respectively. Also, the fold induction at 0.3 µM in the assay with T-cell [3] was 1.01 to 1.3; in the assay on T-cell [6], above 7.5.

Consider `Cc1cc(C(=O)Nc2cccc([C@]3(Cc4nncn4C)CCOC3)c2)nc(C2CC2)n1` (single isomer, unassigned) [Compound 534a], for which the fold induction at 1 µM fell in the range of 0.601 to 0.8 with T-cell [1], 1.01 to 1.3 in the assay on T-cell [3], 0.051 to 0.1 in the assay on T-cell [4] and 2.51 to 5 in the assay with T-cell [6]. In addition, the IC50 was 100 to 300 nM on Cbl-b [2] and at most 300 nM on Cbl-b [5]. Moreover, the results for the fold induction at 0.3 µM in the assay on T-cell [3] and in the assay on T-cell [6] were 1.01 to 1.3 and 1.01 to 2.5, respectively.

`Cc1cc(C(=O)Nc2cccc([C@@]3(Cc4nncn4C)CCOC3)c2)nc(C2CC2)n1` (single isomer, unassigned) [Compound 534b]: the fold induction at 1 µM in the assay on T-cell [1] was in the range of 0.801 to 1; with T-cell [3], 1.01 to 1.3; with T-cell [4], 0.101 to 0.15; in the assay with T-cell [6], 2.51 to 5. In addition, the IC50 was below 100 nM on Cbl-b [2] and at most 100 nM at Cbl-b [5]. Further, the fold induction at 0.3 µM in the assay on T-cell [3] is 1.01 to 1.3; with T-cell [6], 2.51 to 5.

Consider `Cn1cnnc1[C@H](F)[C@@](C)(F)c1cccc(N2Cc3c(cc(C4CC4)cc3C(F)(F)F)C2=O)c1` (stereo in doubt) [Compound 483, 6-cyclopropyl-2-[3-[(1S,2S)-1,2-difluoro-1-(4-methyl-4H-1,2,4-triazol-3-yl)propan-2-yl]phenyl]-4-(trifluoromethyl)-2,3-dihydro-1H-isoindol-1-one], for which the fold induction at 1 µM with T-cell [1] lay within 0.601 to 0.8; in the assay on T-cell [3], 1.01 to 1.3; with T-cell [4] it was 0.051 to 0.1; in the assay on T-cell [6], 1.01 to 2.5. In addition, the fold induction at 8 µM in the assay on T-cell [1] lay in the range of 0.801 to 1; in the assay on T-cell [4] it was 0.051 to 0.1. In addition, the IC50 is 100 to 300 nM on Cbl-b [2] and at most 300 nM at Cbl-b [5]. Also, the fold induction at 0.3 µM is 1.01 to 1.3 in the assay with T-cell [3] and below 1 in the assay on T-cell [6]. The fold induction at 4 µM with T-cell [3] was in the range of 1.01 to 1.3; with T-cell [6], 1.01 to 2.5.

Take `C[C@H](c1cc2c(c(C(F)(F)F)c1)CN(c1cccc(C3([C@@H](F)c4nncn4C)COC3)c1)C2=O)N1CCC2(CC2)C1` (stereo in doubt) [Compound 515, 6-[(1R)-1-{5-azaspiro[2.4]heptan-5-yl}ethyl]-2-(3-{3-[(R)-fluoro(4-methyl-1,2,4-triazol-3-yl)methyl]oxetan-3-yl}phenyl)-4-(trifluoromethyl)-3H-isoindol-1-one]: the fold induction at 1 µM in the assay with T-cell [1] is above 1; in the assay with T-cell [3], above 1.76; with T-cell [4], above 0.201; in the assay on T-cell [6] it was above 7.5. Also, the IC50 on Cbl-b [2] was below 100 nM; on Cbl-b [5], at most 100 nM. Besides, the fold induction at 0.3 µM was above 1.76 in the assay with T-cell [3] and above 7.5 in the assay with T-cell [6].

Regarding `C[C@H](Cc1nncn1C)c1cc(N[C@@H](C)CO)nc(N2Cc3c(cccc3C(F)(F)F)C2=O)c1` [Compound 365, 2-(6-((S)-1-hydroxypropan-2-ylamino)-4-((R)-1-(4-methyl-4H-1,2,4-triazol-3-yl)propan-2-yl)pyridin-2-yl)-4-(trifluoromethyl)isoindolin-1-one], the fold induction at 1 µM lay within 0.601 to 0.8 in the assay on T-cell [1], 1.01 to 1.3 with T-cell [3], 0.051 to 0.1 in the assay on T-cell [4] and 1.01 to 2.5 with T-cell [6]. Moreover, the fold induction at 8 µM was above 1 with T-cell [1] and 0.151 to 0.2 with T-cell [4]. Further, the IC50 at Cbl-b [2] was 100 to 300 nM; at Cbl-b [5], at most 300 nM. The values for the fold induction at 0.3 µM in the assay on T-cell [3] and in the assay on T-cell [6] were 1.01 to 1.3 and 1.01 to 2.5, respectively. The fold induction at 4 µM fell in the range of 1.01 to 1.3 in the assay with T-cell [3] and 2.51 to 5 in the assay on T-cell [6].

For `C[C@H](Cc1nncn1C)c1cccc(N2Cc3c(cc([C@@H]4CCCNC4)cc3C(F)(F)F)C2=O)c1` [Compound 382, 2-(3-((R)-1-(4-methyl-4H-1,2,4-triazol-3-yl)propan-2-yl)phenyl)-6-((S)-piperidin-3-yl)-4-(trifluoromethyl)isoindolin-1-one], the fold induction at 1 µM in the assay with T-cell [1] was in the range of 0.601 to 0.8; in the assay with T-cell [3], 1.31 to 1.5; in the assay on T-cell [4], 0.101 to 0.15; with T-cell [6] it was 5 to 7.5. Further, the fold induction at 8 µM in the assay on T-cell [1] was above 1; in the assay with T-cell [4], above 0.201. Moreover, the IC50 was 100 to 300 nM on Cbl-b [2] and at most 300 nM at Cbl-b [5]. The fold induction at 0.3 µM in the assay on T-cell [3] was 1.01 to 1.3; in the assay on T-cell [6], 2.51 to 5. Moreover, the values for the fold induction at 4 µM with T-cell [3] and with T-cell [6] were 1.51 to 1.75 and 5 to 7.5, respectively.

With `CN1CC2CCC1CN2c1cc2c(c(C(F)(F)F)c1)CN(c1cccc(C3(Cc4nncn4C)COC3)c1)C2=O` (stereo not drawn) [Compound 387, 2-(3-(3-((4-Methyl-4H-1,2,4-triazol-3-yl)methyl)oxetan-3-yl)phenyl)-6-(5-methyl-2,5-diazabicyclo[2.2.2]octan-2-yl)-4-(trifluoromethyl)isoindolin-1-one], the fold induction at 1 µM is 0.801 to 1 with T-cell [1], 1.31 to 1.5 with T-cell [3], above 0.201 with T-cell [4] and 5 to 7.5 in the assay on T-cell [6]. Besides, the IC50 on Cbl-b [2] was below 100 nM; at Cbl-b [5], at most 100 nM. Further, the fold induction at 0.3 µM in the assay on T-cell [3] is 1.01 to 1.3; in the assay with T-cell [6] it was 2.51 to 5.

As for `C[C@H]1CN(C)CCN1c1cc2c(c(C(F)(F)F)c1)CN(c1cccc(C3(Cc4nncn4C)COC3)c1)C2=O` [Compound 389, (S)-6-(2,4-Dimethylpiperazin-1-yl)-2-(3-(3-((4-methyl-4H-1,2,4-triazol-3-yl)methyl)oxetan-3-yl)phenyl)-4-(trifluoromethyl)isoindolin-1-one], the fold induction at 1 µM was above 1 in the assay with T-cell [1], 1.31 to 1.5 in the assay on T-cell [3], above 0.201 in the assay on T-cell [4] and above 7.5 in the assay with T-cell [6]. Besides, the 50% inhibitory concentration (IC50) is below 100 nM on Cbl-b [2] and at most 100 nM on Cbl-b [5]. In addition, the fold induction at 0.3 µM in the assay on T-cell [3] was in the range of 1.01 to 1.3; with T-cell [6], 5 to 7.5.
